No end group written: not given here.
T1: Dvl PDZ domain (Dvl1 PDZ) (Mus musculus, UniProt P51141)
T1 sequence (P51141 248-337): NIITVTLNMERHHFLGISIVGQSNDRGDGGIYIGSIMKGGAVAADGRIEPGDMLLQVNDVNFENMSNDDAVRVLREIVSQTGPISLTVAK

T2: Dapper C-terminal peptide (Rox-DprC) (Xenopus laevis)
T2 chain: Rox-SGSLKLMTTV

B1: Dishevelled PDZ domain (Dvl1) PDZ (protein)
chain: NIITVTLNMERHHFLGISIVGQSNDRGDGGIYIGSIMKGGAVAADGRIEPGDMLLQVNDVNFENMSNDDAVRVLREIVS

How the values were obtained:
[1] = biological target: T1, Dvl PDZ domain (Dvl1 PDZ); test: binding test shown only in supplement
[2] = biological target: T1, Dvl PDZ domain (Dvl1 PDZ); test: fluorescence polarization competition with Rox-DprC peptide; assay type: binding
[3] = biological target: T2, Dapper C-terminal peptide (Rox-DprC); test: fluorescence polarization

Row | Molecule | Ki [2] | further results
1 | CSc1ccc(/C=C2/C(C)=C(CC(=O)O)c3cc(F)ccc32)cc1 [sulindac sulfide] |  | binding test shown only in supplement [1]: binds to the PDZ domain with much weaker affinity (Figure S6)
2 | CC1=C(CC(=O)O)c2cc(F)ccc2/C1=C\c1ccc(S(C)(=O)=O)cc1 [sulindac sulfone] | 8 ± 0.2 µM | 
3 | CC1=C(CC(=O)O)c2cc(F)ccc2/C1=C\c1ccc([S@@+](C)[O-])cc1 [sulindac] | 10.7 ± 1.2 µM | 
4 | B1 |  | Kd [3]: ~8 µM

From PMC2978498 (Angewandte Chemie (International ed. in English), 2009)
